The target in assay [1] is Glucagon-like peptide 1 receptor (Homo sapiens, UniProt P43220). Briefly: Agonist activity at human GLP1 receptor expressed in HEK293 cells assessed as induction of cAMP levels after 20 mins by time-resolved fluorescence analysis. It is filed as functional, cell-based.
Another assay concerns Mus musculus. Briefly: Antidiabetic activity in STZ-induced diabetic Kunming mouse assessed as hypoglycemic time duration for glycemia under 8.35 mmol/L at 25 nmol/kg, ip pretreated with STZ for 5 consecutive days and measured up to 48 hrs. In kind it is functional.
For assay [2], the system named is Rattus norvegicus. In words: Antidiabetic activity in Sprague-Dawley rat assessed as increase in insulin level at 25 nmol/kg, ip pretreated for 30 mins followed by glucose challenge and measured after 15 to 60 mins by ELISA method. It is filed as functional. In general terms: In an ELISA, binding on a coated surface is turned into a signal by an enzyme label.
Assay [3] deals with Rattus norvegicus. In words: Antidiabetic activity in Sprague-Dawley rat assessed as decrease in glucose level at 25 nmol/kg, ip pretreated for 30 mins followed by glucose challenge and measured up to 180 mins by OGTT relative to control. In kind it is functional, organism-based.

SMILES strings stand for the structures. Active and inactive are the calls of the source. The rule behind the calls is not given here.

Sequence of Glucagon-like peptide 1 receptor (P43220 whole entry): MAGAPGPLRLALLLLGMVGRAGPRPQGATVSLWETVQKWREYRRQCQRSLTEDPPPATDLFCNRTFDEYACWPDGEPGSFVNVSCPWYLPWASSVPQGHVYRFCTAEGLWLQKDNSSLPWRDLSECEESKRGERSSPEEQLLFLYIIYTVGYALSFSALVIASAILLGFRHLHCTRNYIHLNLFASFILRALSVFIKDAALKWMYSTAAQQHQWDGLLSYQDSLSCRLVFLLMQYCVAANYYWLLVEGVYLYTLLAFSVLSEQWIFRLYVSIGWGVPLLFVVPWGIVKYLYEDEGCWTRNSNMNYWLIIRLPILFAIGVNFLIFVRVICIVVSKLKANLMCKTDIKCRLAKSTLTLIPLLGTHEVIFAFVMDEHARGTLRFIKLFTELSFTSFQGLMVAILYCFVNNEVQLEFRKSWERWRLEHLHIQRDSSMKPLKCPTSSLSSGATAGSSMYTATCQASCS

In the case of `CC[C@H](C)[C@H](NC(=O)[C@H](Cc1ccc(O)cc1)NC(=O)[C@H](CC(C)C)NC(=O)[C@H](CCCNC(=N)N)NC(=O)[C@@H](NC(=O)[C@H](C)NC(=O)[C@H](CCC(=O)O)NC(=O)[C@H](CCC(=O)O)NC(=O)[C@H](CCC(=O)O)NC(=O)[C@H](CCSC)NC(=O)[C@H](CCC(N)=O)NC(=O)[C@H](CCCCN)NC(=O)[C@H](CO)NC(=O)[C@H](CC(C)C)NC(=O)[C@H](CC(=O)O)NC(=O)[C@H](CO)NC(=O)[C@@H](NC(=O)[C@H](Cc1ccccc1)NC(=O)[C@@H](NC(=O)CNC(=O)[C@H](CCC(=O)O)NC(=O)CNC(=O)[C@@H](N)Cc1cnc[nH]1)[C@@H](C)O)[C@@H](C)O)C(C)C)C(=O)N[C@@H](CCC(N)=O)C(=O)N[C@@H](Cc1c[nH]c2ccccc12)C(=O)N[C@@H](CC(C)C)C(=O)N[C@@H](CCCCN)C(=O)N[C@@H](CCC(=O)O)C(=O)NCC(=O)NCC(=O)N1CCC[C@H]1C(=O)N[C@@H](CO)C(=O)N[C@@H](CO)C(=O)NCC(=O)N[C@@H](CCCNC(=N)N)C(=O)N1CCC[C@H]1C(=O)N1CCC[C@H]1C(=O)N1CCC[C@H]1C(=O)N[C@@H](CO)C(=O)N[C@@H](CSC1CC(=O)N(CCCCCCCCCCCC(=O)N[C@@H](CCC(=O)O)C(=O)O)C1=O)C(N)=O` (stereo not given in full), the EC50 in assay [1] came out at 0.0202 nM.

As to `CC[C@H](C)[C@H](NC(=O)[C@H](Cc1ccc(O)cc1)NC(=O)[C@H](CC(C)C)NC(=O)[C@H](CCCNC(=N)N)NC(=O)[C@@H](NC(=O)[C@H](C)NC(=O)[C@H](CCC(=O)O)NC(=O)[C@H](CCC(=O)O)NC(=O)[C@H](CCC(=O)O)NC(=O)[C@H](CCSC)NC(=O)[C@H](CCC(N)=O)NC(=O)[C@H](CSC1CC(=O)N(CCCCCCCCCCCC(=O)N[C@@H](CCC(=O)O)C(=O)O)C1=O)NC(=O)[C@H](CO)NC(=O)[C@H](CC(C)C)NC(=O)[C@H](CC(=O)O)NC(=O)[C@H](CO)NC(=O)[C@@H](NC(=O)[C@H](Cc1ccccc1)NC(=O)[C@@H](NC(=O)CNC(=O)[C@H](CCC(=O)O)NC(=O)CNC(=O)[C@@H](N)Cc1cnc[nH]1)[C@@H](C)O)[C@@H](C)O)C(C)C)C(=O)N[C@@H](CCC(N)=O)C(=O)N[C@@H](Cc1c[nH]c2ccccc12)C(=O)N[C@@H](CC(C)C)C(=O)N[C@@H](CCCCN)C(=O)N[C@@H](CCC(=O)O)C(=O)NCC(=O)NCC(=O)N1CCC[C@H]1C(=O)N[C@@H](CO)C(=O)N[C@@H](CO)C(=O)NCC(=O)N[C@@H](CCCNC(=N)N)C(=O)N1CCC[C@H]1C(=O)N1CCC[C@H]1C(=O)N1CCC[C@H]1C(=O)N[C@@H](CO)C(N)=O` (stereo not given in full), in assay [1], the EC50 was 0.0182 nM.

With `CCCCCCCCCCCCCCCC(=O)N[C@@H](CCC(=O)NCCCC[C@H](NC(=O)[C@H](C)NC(=O)[C@H](C)NC(=O)[C@H](CCC(N)=O)NC(=O)CNC(=O)[C@H](CCC(=O)O)NC(=O)[C@H](CC(C)C)NC(=O)[C@H](Cc1ccc(O)cc1)NC(=O)[C@H](CO)NC(=O)[C@H](CO)NC(=O)[C@@H](NC(=O)[C@H](CC(=O)O)NC(=O)[C@H](CO)NC(=O)[C@@H](NC(=O)[C@H](Cc1ccccc1)NC(=O)[C@@H](NC(=O)CNC(=O)[C@H](CCC(=O)O)NC(=O)[C@H](C)NC(=O)[C@@H](N)Cc1cnc[nH]1)[C@@H](C)O)[C@@H](C)O)C(C)C)C(=O)N[C@@H](CCC(=O)O)C(=O)N[C@@H](Cc1ccccc1)C(=O)N[C@H](C(=O)N[C@@H](C)C(=O)N[C@@H](Cc1c[nH]c2ccccc12)C(=O)N[C@@H](CC(C)C)C(=O)N[C@H](C(=O)N[C@@H](CCCNC(=N)N)C(=O)NCC(=O)N[C@@H](CCCNC(=N)N)C(=O)NCC(=O)O)C(C)C)[C@@H](C)CC)C(=O)O` [LIRAGLUTIDE], the Time in the assay on Mus musculus came to 13.1 h. In addition, the Activity in the assay with Rattus norvegicus [2] stood at 411 pmol/L. The outcome in the assay with Rattus norvegicus [3] was Active.

The EC50 is the concentration giving half of the maximal effect.

These data come from ChEMBL document CHEMBL4396956 (Bioorg Med Chem, 2019).
